We go through six compounds from US12544360B2, “Pharmaceutical composition for preventing or treating coronavirus disease-19” (priority 2020, dated 2026).

Experiment [1] relates to SARS-CoV-2. The experiment in a line: microbe, parasite or virus in culture. In kind it is cell-based. As to conditions: for antiviral activity: human lung cells (Calu-3).
Experiment [2] concerns SARS-CoV-2. The experiment in a line: microbe, parasite or virus in culture. In kind it is cell-based. The note with it: for IC50: Severe acute respiratory syndrome coronavirus 2, in Primates, Vero cells (monkey kidney cells) infected with SARS-CoV-2.
Where [3] appears, read: Severe acute respiratory syndrome coronavirus 2, Calu-3 cells (human lung cells) infected with SARS-CoV-2.

In experiment [1] (setting [3]), `CCN1CCN(c2cc(-c3ccc(F)cc3)c3c(n2)CCCCCC3)CC1` [Blonanserin] showed an IC50 above 50 µM.
`Cc1cc(O)c2c(=O)c3c(O)cc(O)c4c5c(O)cc(O)c6c(=O)c7c(O)cc(C)c8c1c2c(c34)c(c78)c65` [Hypericin] showed an IC50 in experiment [1] (Severe acute respiratory syndrome coronavirus 2, Calu-3) above 50 µM.
The compound `CCN(CC)CCCC(C)Nc1ccnc2cc(Cl)ccc12` (stereo not drawn) [chloroquine] showed an IC50 in experiment [2] of 8.89 µM.
Take `COc1ncc(-c2ccc3nccc(-c4ccnnc4)c3c2)cc1NS(=O)(=O)c1ccc(F)cc1F` [Omipalisib]: the values for the IC50 in experiment [2] and in experiment [1] (setting [3]) were 0.49 µM and 0.01 µM, respectively. Also, in experiment [1], the antiviral activity result is listed as “exhibited antiviral activity”.
Consider `Cc1cc(O)c2c(c1)C(=O)c1cc(O)cc(O)c1C2=O` [Emodin], for which the antiviral activity entry is listed as “significant antiviral activities” in experiment [2] (Vero cells) and “exhibited antiviral activity” in experiment [1].
Compound `Cc1cccc(C)c1OCC(=O)N[C@@H](Cc1ccccc1)[C@@H](O)C[C@H](Cc1ccccc1)NC(=O)[C@H](C(C)C)N1CCCNC1=O` [lopinavir] gave an IC50 in experiment [2] of 11 µM.

The term IC50 denotes the concentration needed to halve the response being measured.
